According to US20260125374A1, “PI3K-ALPHA INHIBITORS AND METHODS OF MAKING AND USING THE SAME” (Relay Therapeutics, Inc., priority 2021, published 2026):
In brackets after ≈: the same amount, converted by molar mass.

Columns and labels:
[1] = Solubility study at 37° C. (buffer, water, bio-relevant media, MeOH/DCM); format: physicochemical
Experimental: In addition, residual solids were checked by chiral HPLC to confirm whether racemization occurs.
Accurate 4 mg of I-1 Form A, 5.13 mg of I-3 Form A, 4.63 mg of I-4 Form A was weighed into a 8 mL glass vial, respectively. 2 mL of solubility medium was added. The salt amount used is equivalent to 4 mg anhydrous free form. Obtained suspensions/solutions were stirred at 37° C. at 400 rpm for 2 hours and 24 hours and then centrifuged at 37° C. at 14,000 rpm for 5 min. Supernatants were analyzed by UPLC and PH meter for solubility and pH value, respectively. Residual solids (wet cakes) were characterized by XRPD to determine physical form and then analyzed by HPLC for chiral purity.

[2] = Suspension stability at 25° C.; format: physicochemical; conditions: for Purity / Solubility / pH / Chiral purity (solids) / Solubility (μg/mL) / Chiral purity, liquid / Chiral purity, solid / Chiral purity: 25° C.; for Solubility (μg/mL): LOQ: 0.25 μg/mL; for Initial chiral purity: before suspension
Experimental: Suspension stability: Suspension stability of I-1 Form A and the 2 salt candidates was investigated in pure water, 0.5% (w/w) Tween 80 aqueous solution and 0.5% (w/w) MC (400 cP)+2% (w/w) Vitamin E TPGS aqueous solution at 25° C. for 2 h and 24 h. Target concentration was 2 mg/mL.
To confirm whether racemization occurs for the 2 salts in 0.5% (w/w) MC (400 cP)+2% (w/w) Vitamin E TPGS aqueous solution, the suspension stability in this vehicle was repeated at target concentration of 10 mg/mL. […] The hygroscopicity of these salts were further investigated.
Accurate 10 mg of I-1 Form A, 12.83 mg of I-3 Form A, 11.58 mg of I-4 Form A was weighed into a 8 mL glass vial, respectively. 5 mL of suspension vehicle was added, respectively. The salt amount used is equivalent to 10 mg anhydrous free form. These suspensions were stirred at 25° C. with 400 rpm. These suspensions were taken out at 2 hours and 24 hours, then centrifuged at 14,000 rpm for 5 min. The supernatants were analyzed by HPLC and pH meter. Solids obtained (wet cakes) were characterized by XRPD and HPLC to determine the chiral purity.
Accurate […] of I-3 Form A, 46.3 mg of I-4 Form A was weighed into a 8 mL glass vial, respectively. 4 mL of solubility medium was added, respectively. The salt amount used is equivalent to 40 mg anhydrous free form. 4 mL of the aqueous vehicle (0.5% (w/w) MC (400 cP) and 2% (w/w) Vitamin E TPGS in water) was added, respectively. These suspensions were stirred at 25° C. with 400 rpm. These suspensions were taken out at 2 hours and 24 hours, then centrifuged at 14,000 rpm for 5 min. The supernatants were analyzed by HPLC for the solubility and chiral purity and analyzed by pH meter. Solids obtained (wet cakes) were characterized by XRPD and HPLC for chiral purity.

[3] = FaSSIF-V1, pH 6.5, 2 hours, listed as I-4 Form A
[4] = FaSSIF-V1, pH 6.5, 24 hours, listed as I-4 Form A
[5] = FeSSIF-V1, pH 5.0, 2 hours, listed as I-4 Form A
[6] = FeSSIF-V1, pH 5.0, 24 hours, listed as I-4 Form A
[7] = SGF, pH 2.0, 24 hours, listed as I-4 Form A
[8] = Water, 24 hours, listed as I-4 Form A
[9] = pH 2, HCl, 24 hours, listed as I-4 Form A
[10] = 2 mg/mL, 0.5%(w/w) MC(400 cP) and 2%(w/w) Vitamin E TPGS in water, 2 h, listed as I-4 Form A
[11] = 2 mg/mL, 0.5%(w/w) MC(400 cP) and 2%(w/w) Vitamin E TPGS in water, 24 h, listed as I-4 Form A
[12] = 2 mg/mL, 0.5%(w/w) Tween 80 in water, 2 h, listed as I-4 Form A
[13] = 2 mg/mL, 0.5%(w/w) Tween 80 in water, 24 h, listed as I-4 Form A
[14] = 2 mg/mL, Pure water, 2 h, listed as I-4 Form A
[15] = 2 mg/mL, Pure water, 24 h, listed as I-4 Form A
[16] = 10 mg/mL, 0.5(w/w) MC(400 cP) and 2%(w/w) Vitamin E TPGS in water, 2 h, listed as I-4 Form A
[17] = 10 mg/mL, 0.5(w/w) MC(400 cP) and 2%(w/w) Vitamin E TPGS in water, 24 h, listed as I-4 Form A
[18] = FaSSIF-V1, pH 6.5, 2 hours, listed as I-3 Form A
[19] = FaSSIF-V1, pH 6.5, 24 hours, listed as I-3 Form A
[20] = FeSSIF-V1, pH 5.0, 2 hours, listed as I-3 Form A
[21] = FeSSIF-V1, pH 5.0, 24 hours, listed as I-3 Form A
[22] = SGF, pH 2.0, 24 hours, listed as I-3 Form A
[23] = Water, 24 hours, listed as I-3 Form A
[24] = pH 2, HCl, 24 hours, listed as I-3 Form A
[25] = 2 mg/mL, 0.5%(w/w) MC(400 cP) and 2%(w/w) Vitamin E TPGS in water, 2 h, listed as I-3 Form A
[26] = 2 mg/mL, 0.5%(w/w) MC(400 cP) and 2%(w/w) Vitamin E TPGS in water, 24 h, listed as I-3 Form A
[27] = 2 mg/mL, 0.5%(w/w) Tween 80 in water, 2 h, listed as I-3 Form A
[28] = 2 mg/mL, 0.5%(w/w) Tween 80 in water, 24 h, listed as I-3 Form A
[29] = 2 mg/mL, Pure water, 2 h, listed as I-3 Form A
[30] = 2 mg/mL, Pure water, 24 h, listed as I-3 Form A
[31] = 10 mg/mL, 0.5(w/w) MC(400 cP) and 2%(w/w) Vitamin E TPGS in water, 2 h, listed as I-3 Form A
[32] = 10 mg/mL, 0.5(w/w) MC(400 cP) and 2%(w/w) Vitamin E TPGS in water, 24 h, listed as I-3 Form A

N#Cc1c(-c2cc(NC(=O)c3cc(F)cc(C(F)(F)F)c3)c3c(c2)C(=O)N[C@H]3c2cc(F)ccc2Cl)ccc2ncnn12 [Compound I-4]
Chiral purity [1, 3]: purity: 98.3%)
Solubility [1, 3]: 44.1 μg/mL(chiral
Chiral purity (solids) [1, 4]: 99.3%)
Solubility [1, 4]: 0.4 µg/mL (≈ 0.657 µM)
pH of supernatant [1, 4]: 6.15
Chiral purity [1, 5]: purity: 97.7%)
Solubility [1, 5]: 239.1 μg/mL(chiral
Chiral purity (solids) [1, 6]: 85.2%)
Solubility [1, 6]: 16.2 µg/mL (≈ 26.6 µM)
pH of supernatant [1, 6]: 4.84
Solubility ([1]; MeOH/DCM (1:2, v/v), 2 hours, listed as I-4 Form A): >111000 µg/mL
Solubility ([1]; MeOH/DCM (1:2, v/v), 24 hours, listed as I-4 Form A): >111000 µg/mL
Solubility ([1]; SGF, pH 2.0, 2 hours, listed as I-4 Form A): 3.2 µg/mL (≈ 5.26 µM)
Chiral purity (solids) [1, 7]: 99.2%)
Solubility [1, 7]: 2.6 µg/mL (≈ 4.27 µM)
pH of supernatant [1, 7]: 1.89
Chiral purity (solids) [1, 8]: 99.2%)
pH of supernatant [1, 8]: 2.52
solubility in MeOH/DCM (1:2, v/v) ([1]; listed as I-4 Form A): > 111000 µg/mL
Chiral purity (solids) [1, 9]: 99.3%)
pH of supernatant [1, 9]: 1.89
physical form of residual solids after the test (XRPD) ([2]; 0.5% MC (400 cP)+2% Vitamin E TPGS, target 10 mg/mL): converted to amorphous form
Purity [2, 10]: 99.2%
Solubility [2, 10]: 1210.7 µg/mL (≈ 1990 µM)
pH [2, 10]: 2.72
Purity [2, 11]: 99.6%
Solubility [2, 11]: 2018.8 µg/mL (≈ 3320 µM)
pH [2, 11]: 2.61
Chiral purity (solids) [2, 12]: 99.7%
Purity [2, 12]: 99.5%
Solubility [2, 12]: 342.6 µg/mL (≈ 563 µM)
pH [2, 12]: 2.78
Chiral purity (solids) [2, 13]: 95.8%
Purity [2, 13]: 99.6%
pH [2, 13]: 2.63
Solubility (μg/mL) ([2]; 2 mg/mL, Pure water, 2 h): <LOQ
Chiral purity (solids) [2, 14]: 99.7%
Purity [2, 14]: 99.5%
pH [2, 14]: 2.81
Solubility (μg/mL) ([2]; 2 mg/mL, Pure water, 24 h): <LOQ
Chiral purity (solids) [2, 15]: 99.7%
Purity [2, 15]: 99.4%
pH [2, 15]: 2.61
Purity ([2]; 10 mg/mL, 0.5(w/w) MC(400 cP) and 2%(w/w) Vitamin E TPGS in water, 2 h): 99.7%
Chiral purity, liquid [2, 16]: 100%;
Chiral purity, solid [2, 16]: 99.8%
pH [2, 16]: 1.89
Chiral purity, liquid [2, 17]: 99.8%;
Chiral purity, solid [2, 17]: 99.7%
Purity [2, 17]: 99.6%
pH [2, 17]: 1.86
solubility at 2 h ([2]; 25 °C, aqueous with cosolvent or surfactant or cyclodextrin, thermodynamic from solid, 10 mg/mL, 0.5(w/w) MC(400 cP) and 2%(w/w) Vitamin E TPGS in water, 2 h): 3950 µg/mL (≈ 6480 µM)
solubility at 24 h ([2]; 25 °C, aqueous with cosolvent or surfactant or cyclodextrin, thermodynamic from solid, 10 mg/mL, 0.5(w/w) MC(400 cP) and 2%(w/w) Vitamin E TPGS in water, 24 h): 3810 µg/mL (≈ 6260 µM)
Initial chiral purity ([2]; listed as I-4 Form A): Initial chiral purity: 99.5%
solubility at 24 h ([2]; suspension in 0.5% (w/w) Tween 80 in water, 25 °C, aqueous with cosolvent or surfactant or cyclodextrin, thermodynamic from solid, 2 mg/mL, 0.5%(w/w) Tween 80 in water, 24 h): 16.3 µg/mL (≈ 26.8 µM)

N#Cc1c(-c2cc(NC(=O)c3cc(F)cc(C(F)(F)F)c3)c3c(c2)C(=O)N[C@H]3c2cc(F)ccc2Cl)ccc2ncnn12 [Compound I-3]
Chiral purity [1, 18]: purity: 96.1%)
Solubility [1, 18]: 52.2 μg/mL (chiral
Chiral purity (solids) [1, 19]: 98.4%)
Solubility [1, 19]: 0.7 µg/mL (≈ 1.15 µM)
pH of supernatant [1, 19]: 6.17
Chiral purity [1, 20]: purity: 97.1%)
Solubility [1, 20]: 176.1 μg/mL(chiral
Chiral purity (solids) [1, 21]: 66.4%)
Solubility [1, 21]: 19.0 µg/mL (≈ 31.2 µM)
pH of supernatant [1, 21]: 4.86
Solubility ([1]; MeOH/DCM (1:2, v/v), 2 hours, listed as I-3 Form A): >75000 µg/mL
Solubility ([1]; MeOH/DCM (1:2, v/v), 24 hours, listed as I-3 Form A): >75000 µg/mL
Solubility ([1]; SGF, pH 2.0, 2 hours, listed as I-3 Form A): 4.2 µg/mL (≈ 6.9 µM)
Chiral purity (solids) [1, 22]: 98.3%)
Solubility [1, 22]: 1.3 µg/mL (≈ 2.13 µM)
pH of supernatant [1, 22]: 1.92
Solubility ([1]; Water, 2 hours, LOQ: 0.5 μg/mL): <LOQ
Solubility ([1]; Water, 24 hours, LOQ: 0.5 μg/mL): LOQ
Chiral purity (solids) [1, 23]: 98.3%)
pH of supernatant [1, 23]: 2.54
solubility in MeOH/DCM (1:2, v/v) ([1]; listed as I-3 Form A): > 75000 µg/mL
Solubility ([1]; pH 2, HCl, 2 hours, LOQ: 0.5 μg/mL): <LOQ
Solubility ([1]; pH 2, HCl, 24 hours, LOQ: 0.5 μg/mL): LOQ
Chiral purity (solids) [1, 24]: 98.3%)
pH of supernatant [1, 24]: 1.86
physical form of residual solids (XRPD) ([2]; 0.5% MC (400 cP)+2% Vitamin E TPGS, 10 mg/mL, 2 h sample, listed as I-3 Form A): converted to a hydrate (I-3 Form B)
physical form of residual solids (XRPD) ([2]; 0.5% MC (400 cP)+2% Vitamin E TPGS, 10 mg/mL, 2 h sample, listed as tosylate salt): a form change
physical form of residual solids (XRPD) ([2]; 0.5% MC (400 cP)+2% Vitamin E TPGS, 10 mg/mL, 24 h sample): remained unchanged
Chiral purity [2, 25]: 86.4%
Purity [2, 25]: 99.3%
Solubility [2, 25]: 1220.9 µg/mL (≈ 2010 µM)
pH [2, 25]: 2.76
Chiral purity [2, 26]: 98.3%
Purity [2, 26]: 99.3%
Solubility [2, 26]: 1990.7 µg/mL (≈ 3270 µM)
pH [2, 26]: 2.62
Chiral purity [2, 27]: 95.8%
Chiral purity (solids) [2, 27]: 98.0%
Purity [2, 27]: 99.4%
Solubility [2, 27]: 244.6 µg/mL (≈ 402 µM)
pH [2, 27]: 3.11
Chiral purity [2, 28]: 98.5%
Chiral purity (solids) [2, 28]: 94.2%
Purity [2, 28]: 99.4%
Solubility [2, 28]: 17.9 µg/mL (≈ 29.4 µM)
pH [2, 28]: 2.63
Chiral purity (solids) [2, 29]: 98.3%
Purity [2, 29]: 99.6%
pH [2, 29]: 5.59
Chiral purity (solids) [2, 30]: 98.3%
Purity [2, 30]: 99.5%
pH [2, 30]: 2.85
Chiral purity, liquid [2, 31]: 99.4%;
Chiral purity, solid [2, 31]: 97.9%
Solubility [2, 31]: 3433.2 µg/mL (≈ 5640 µM)
pH [2, 31]: 2.30
Chiral purity, liquid [2, 32]: 99.4%;
Chiral purity, solid [2, 32]: 98.3%
Purity [2, 32]: 99.7%
Solubility [2, 32]: 3083.9 µg/mL (≈ 5060 µM)
pH [2, 32]: 2.17
Initial chiral purity ([2]; listed as I-3 Form A): Initial chiral purity: 98.6%
